We go through 1 compound from publication PMC6661730, “Biochemical characterization of a novel exo-oligoxylanase from Paenibacillus barengoltzii suitable for monosaccharification from corncobs” (Biotechnology for Biofuels, 2019).

In this assay the target is T1, PbRex8 (Paenibacillus barengoltzii, UniProt R9L536).
T1 construct: gene C812_03928; full-length ORF, 382 residues (predicted 44 kDa), no signal peptide; N-terminal His6-tag from pET-28a(+) (NheI/XhoI), tag cleavage not mentioned; E. coli BL21(DE3); monomer; primers encode N-terminal MKEHQG and C-terminal RGEA
Kind of assay: HPLC-RID xylose release, nonlinear regression. In kind it is biochemical. The conditions noted are these: competitive; X3 as substrate, 5 mM citrate pH 5.5, 55 °C.

The Ki is the equilibrium dissociation constant of an inhibitor or competing ligand from its target.

T1 sequence (R9L536 entry or part of it): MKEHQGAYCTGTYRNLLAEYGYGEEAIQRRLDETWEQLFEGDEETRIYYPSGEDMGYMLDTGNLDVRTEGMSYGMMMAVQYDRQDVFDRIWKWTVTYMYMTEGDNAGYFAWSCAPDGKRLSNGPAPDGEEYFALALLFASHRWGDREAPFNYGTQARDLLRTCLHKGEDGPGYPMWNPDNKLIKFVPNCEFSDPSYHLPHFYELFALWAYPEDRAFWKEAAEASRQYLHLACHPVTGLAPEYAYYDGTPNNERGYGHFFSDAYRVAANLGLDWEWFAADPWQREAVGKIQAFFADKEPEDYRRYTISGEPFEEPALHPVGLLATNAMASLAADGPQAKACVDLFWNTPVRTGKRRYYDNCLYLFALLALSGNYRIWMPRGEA

The compound `OC1OC[C@@H](O)[C@H](O)[C@H]1O` (stereo partly shown) [X, xylose] showed a Ki of 12.9 ± 0.6 mM.
